This note sets out measurements from ChEMBL document CHEMBL1132632, “Conformational and quantitative structure-activity relationship study of cytotoxic 2-arylidenebenzocycloalkanones” (J Med Chem, 1999).

The test system of assay [1] is L1210. Kind of assay: Inhibitory activity was tested against L1210 cells. Format: functional, cell-based. As to conditions: Mus musculus.
Assay [2] has as its system MOLT-4. Kind of assay: Inhibitory activity was tested against Molt4/C8 cells. As to conditions: Homo sapiens. Format: functional, cell-based.
The test system of assay [3] is P388. The experiment in a line: Inhibitory activity was tested against P388 cells. Type of assay: functional, cell-based. The following applies: Mus musculus.
For assay [4], the system named is CCRF-CEM. Kind of assay: Average potency against CEM cells. Format: functional, Homo sapiens.
Assay [5] has as its system CCRF-CEM. The experiment in a line: Inhibitory activity was tested against CEM cells. Type of assay: functional, cell-based. As to conditions: Homo sapiens.
In assay [6] the test system is MOLT-4. Kind of assay: Average potency against Molt4/C8cells. Type of assay: functional, Homo sapiens.
In assay [7] the test system is P388. Kind of assay: Average potency against P388 cells. Format: functional, Mus musculus.
Assay [8] relates to L1210. The experiment in a line: Average potency against L1210 cells. Type of assay: functional, Mus musculus.

As usually defined, the IC50 is the concentration at which inhibition is half-maximal. A lower IC50 goes with inhibition by little substance. `O=C1/C(=C/c2ccc(F)cc2)CCCc2ccccc21`: the IC50 in assay [1] was determined as 60.3 µM; in assay [2], 53.6 µM; in assay [3] it was 11.1 µM; in assay [5], 20 µM. Moreover, the AP in assay [4] is 47 µM; in assay [6] it was 66 µM; in assay [7] it was 11.2 µM; in assay [8], 85.2 µM.
Take `O=C1/C(=C/c2ccc(Cl)cc2)Cc2ccccc21`: the IC50 in assay [1] is 54.1 µM; in assay [2], > 500 µM; in assay [3], > 50 µM; in assay [5] it was 284 µM. The AP in assay [4] came out at 155 µM; in assay [6], 267 µM; in assay [7], 42.9 µM; in assay [8], 127 µM.
Consider `COc1ccc(/C=C2\CCc3ccccc3C2=O)cc1`, for which the IC50 in assay [1] was determined as 44 µM; in assay [2] it was 9.41 µM; in assay [3], 22.1 µM; in assay [5], 8.84 µM. Further, the AP came to 115 µM in assay [4], 158 µM in assay [6], 20.9 µM in assay [7] and 135 µM in assay [8].
`COc1cccc(/C=C2\Cc3ccccc3C2=O)c1`: the 50% inhibitory concentration (IC50) in assay [1] is 217 µM; in assay [2], > 500 µM; in assay [3], > 50 µM; in assay [5] it was > 500 µM. Further, the AP in assay [4] was determined as 155 µM; in assay [6] it was 267 µM; in assay [7], 42.9 µM; in assay [8] it was 127 µM.
Consider `Cc1ccc(/C=C2\Cc3ccccc3C2=O)cc1`, for which the 50% inhibitory concentration (IC50) is 59.1 µM in assay [1], > 500 µM in assay [2], 38.6 µM in assay [3] and 67.1 µM in assay [5]. The AP is 155 µM in assay [4], 267 µM in assay [6], 42.9 µM in assay [7] and 127 µM in assay [8].
Regarding `O=C1/C(=C/c2ccc([N+](=O)[O-])cc2)CCc2ccccc21`, the concentration for half-maximal inhibition (IC50) in assay [1] is > 500 µM; in assay [2], > 500 µM; in assay [3], > 50 µM; in assay [5], > 500 µM. In addition, the AP in assay [4] turned out to be 115 µM; in assay [6] it was 158 µM; in assay [7], 20.9 µM; in assay [8] it was 135 µM.
Turning to `O=C1/C(=C/c2ccc([N+](=O)[O-])cc2)Cc2ccccc21`, the IC50 in assay [1] is > 500 µM; in assay [2] it was > 500 µM; in assay [3], > 50 µM; in assay [5], > 500 µM. Besides, the AP in assay [4] is 155 µM; in assay [6], 267 µM; in assay [7], 42.9 µM; in assay [8], 127 µM.
Turning to `O=C1/C(=C/c2ccc(Br)cc2)Cc2ccccc21`, the half-inhibitory concentration (IC50) in assay [1] is 64.8 µM; in assay [2], > 500 µM; in assay [3], > 50 µM; in assay [5], 299 µM. In addition, the AP in assay [4] came to 155 µM; in assay [6] it was 267 µM; in assay [7] it was 42.9 µM; in assay [8], 127 µM.
For `CN(C)c1ccc(/C=C2\CCc3ccccc3C2=O)cc1`, the 50% inhibitory concentration (IC50) in assay [1] was 17.5 µM; in assay [2], 2.11 µM; in assay [3], 5.3 µM; in assay [5] it was 1.65 µM. Also, the AP is 115 µM in assay [4], 158 µM in assay [6], 20.9 µM in assay [7] and 135 µM in assay [8].
`O=C1/C(=C/c2cccc(F)c2)Cc2ccccc21`: the IC50 turned out to be 181 µM in assay [1], 46.1 µM in assay [2], 40 µM in assay [3] and 39.2 µM in assay [5]. The AP was determined as 155 µM in assay [4], 267 µM in assay [6], 42.9 µM in assay [7] and 127 µM in assay [8].
As to `O=C1/C(=C/c2cccc(Br)c2)CCCc2ccccc21`, the IC50 in assay [1] was found to be 51 µM; in assay [2], 17.1 µM; in assay [3] it was 10.5 µM; in assay [5] it was 8.9 µM. In addition, the AP was found to be 47 µM in assay [4], 66 µM in assay [6], 11.2 µM in assay [7] and 85.2 µM in assay [8].
As to `O=C1/C(=C/c2ccccc2)Cc2ccccc21`, the concentration for half-maximal inhibition (IC50) in assay [1] is 112 µM; in assay [2] it was 42.3 µM; in assay [3] it was > 50 µM; in assay [5], 41.3 µM. The AP is 155 µM in assay [4], 267 µM in assay [6], 42.9 µM in assay [7] and 127 µM in assay [8].
For `O=C1/C(=C/c2ccc(Br)cc2)CCCc2ccccc21`, the IC50 turned out to be 50.9 µM in assay [1], 54.7 µM in assay [2], 18.6 µM in assay [3] and 17.1 µM in assay [5]. Also, the AP is 47 µM in assay [4], 66 µM in assay [6], 11.2 µM in assay [7] and 85.2 µM in assay [8].
Turning to `O=C1/C(=C/c2ccccc2)CCc2ccccc21`, the IC50 in assay [1] was found to be 121 µM; in assay [2], 32.4 µM; in assay [3] it was 30.2 µM; in assay [5], 7.42 µM. Moreover, the AP in assay [4] turned out to be 115 µM; in assay [6], 158 µM; in assay [7], 20.9 µM; in assay [8] it was 135 µM.
With `O=C1/C(=C/c2ccc(Br)cc2)CCc2ccccc21`, the half-maximal inhibitory concentration (IC50) in assay [1] is 202 µM; in assay [2] it was > 500 µM; in assay [3], 20.4 µM; in assay [5], > 500 µM. For the same compound, the AP stood at 115 µM in assay [4], 158 µM in assay [6], 20.9 µM in assay [7] and 135 µM in assay [8].
In the case of `O=C1/C(=C/c2ccc(F)cc2)CCc2ccccc21`, the IC50 in assay [1] amounted to 49.3 µM; in assay [2], 41.2 µM; in assay [3], 15.9 µM; in assay [5], 33.4 µM. Moreover, the AP is 115 µM in assay [4], 158 µM in assay [6], 20.9 µM in assay [7] and 135 µM in assay [8].
On to `CN(C)c1ccc(/C=C2\Cc3ccccc3C2=O)cc1`, for which the IC50 in assay [1] was 61.7 µM; in assay [2] it was 135 µM; in assay [3], > 50 µM; in assay [5], 41 µM. Further, the AP in assay [4] is 155 µM; in assay [6], 267 µM; in assay [7], 42.9 µM; in assay [8] it was 127 µM.
As for `Cc1cccc(/C=C2\CCc3ccccc3C2=O)c1`, the 50% inhibitory concentration (IC50) was determined as 73.2 µM in assay [1], 35.8 µM in assay [2], 16.3 µM in assay [3] and 9.41 µM in assay [5]. The AP in assay [4] worked out at 115 µM; in assay [6], 158 µM; in assay [7], 20.9 µM; in assay [8] it was 135 µM.
On to `O=C1/C(=C/c2cccc(Cl)c2)CCc2ccccc21`, for which the IC50 in assay [1] stood at 118 µM; in assay [2], 41.8 µM; in assay [3], 16.8 µM; in assay [5] it was 9.19 µM. Further, the AP in assay [4] was found to be 115 µM; in assay [6], 158 µM; in assay [7], 20.9 µM; in assay [8], 135 µM.
`COc1cccc(/C=C2\CCc3ccccc3C2=O)c1`: the IC50 turned out to be 60.7 µM in assay [1], 12.1 µM in assay [2], 17.6 µM in assay [3] and 8.78 µM in assay [5]. Further, the AP is 115 µM in assay [4], 158 µM in assay [6], 20.9 µM in assay [7] and 135 µM in assay [8].
For the compound `Cc1ccc(/C=C2\CCc3ccccc3C2=O)cc1`, the 50% inhibitory concentration (IC50) in assay [1] was 161 µM; in assay [2] it was > 500 µM; in assay [3], 17.7 µM; in assay [5] it was 460 µM. In addition, the AP came out at 115 µM in assay [4], 158 µM in assay [6], 20.9 µM in assay [7] and 135 µM in assay [8].
Consider `O=C1/C(=C/c2ccc(Cl)cc2)CCc2ccccc21`, for which the half-inhibitory concentration (IC50) in assay [1] was 69.1 µM; in assay [2] it was > 500 µM; in assay [3] it was 20.9 µM; in assay [5], 48.2 µM. The AP was determined as 115 µM in assay [4], 158 µM in assay [6], 20.9 µM in assay [7] and 135 µM in assay [8].
`O=C1CCCCC/C1=C\c1cccc(Br)c1`: the half-maximal inhibitory concentration (IC50) in assay [1] came to 246 µM; in assay [2], 176 µM; in assay [3], 24.1 µM; in assay [5] it was 137 µM. Also, the AP in assay [4] stood at 136 µM; in assay [6], 186 µM; in assay [7], 34.5 µM; in assay [8] it was 227 µM.
Take `O=C1/C(=C/c2ccc(F)cc2)Cc2ccccc21`: the IC50 in assay [1] was 89 µM; in assay [2], 60 µM; in assay [3], > 50 µM; in assay [5] it was 42.2 µM. Further, the AP in assay [4] was 155 µM; in assay [6], 267 µM; in assay [7], 42.9 µM; in assay [8], 127 µM.
Consider `COc1ccc(/C=C2\Cc3ccccc3C2=O)cc1`, for which the IC50 was 45.8 µM in assay [1], 226 µM in assay [2], > 50 µM in assay [3] and 32.6 µM in assay [5]. Further, the AP stood at 155 µM in assay [4], 267 µM in assay [6], 42.9 µM in assay [7] and 127 µM in assay [8].
`O=C1/C(=C/c2cccc(F)c2)CCc2ccccc21`: the IC50 in assay [1] was 61.2 µM; in assay [2], 11.9 µM; in assay [3], 31.1 µM; in assay [5], 8.01 µM. The AP in assay [4] was 115 µM; in assay [6], 158 µM; in assay [7] it was 20.9 µM; in assay [8] it was 135 µM.
In the case of `O=C1/C(=C/c2cccc(Cl)c2)Cc2ccccc21`, the IC50 was found to be 41.2 µM in assay [1], 50.9 µM in assay [2], 26.3 µM in assay [3] and 31.8 µM in assay [5]. Also, the AP amounted to 155 µM in assay [4], 267 µM in assay [6], 42.9 µM in assay [7] and 127 µM in assay [8].
